Experimental data taken from the supplement of paper PMC10307832.

How the values were obtained:
Experiment in all cases: relative viability (nuclei count vs DMSO), 5 days (fraction); higher = more cells survive
RAF265 + Decitabine = compound: Cn1c(Nc2ccc(C(F)(F)F)cc2)nc2cc(Oc3ccnc(-c4ncc(C(F)(F)F)[nH]4)c3)ccc21 [RAF265] + Nc1ncn([C@H]2C[C@H](O)[C@@H](CO)O2)c(=O)n1 [Decitabine] (partner 2 µM)
How it was run: (§1)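 Cells from lung cancer lines were seeded into 1536-well plates and, one day later, dosed by pin tool. Treatments were either a single drug or a fixed dose of an anchor drug with five library-drug doses (not always all listed) in √10 steps. After 5 days, nuclei were stained in a one-step fixation (final 0.05% Triton X-100, 1% formaldehyde, 1 ug/ml Hoechst) and counted on 4× images, and relative viability is the treated-to-vehicle nuclei ratio, as the median of duplicate plates.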

Doramapimod + Navitoclax = compound: Cc1ccc(-n2nc(C(C)(C)C)cc2NC(=O)Nc2ccc(OCCN3CCOCC3)c3ccccc23)cc1 [Doramapimod] + CC1(C)CCC(c2ccc(Cl)cc2)=C(CN2CCN(c3ccc(C(=O)NS(=O)(=O)c4ccc(N[C@H](CCN5CCOCC5)CSc5ccccc5)c(S(=O)(=O)C(F)(F)F)c4)cc3)CC2)C1 [Navitoclax] (partner 0.5 µM)
How it was run: as §1

RAF265 + AZD7762 = compound: Cn1c(Nc2ccc(C(F)(F)F)cc2)nc2cc(Oc3ccnc(-c4ncc(C(F)(F)F)[nH]4)c3)ccc21 [RAF265] + NC(=O)Nc1cc(-c2cccc(F)c2)sc1C(=O)N[C@H]1CCCNC1 [AZD7762] (partner 0.2 µM)
How it was run: as §1

RAF265 + Vorinostat = compound: Cn1c(Nc2ccc(C(F)(F)F)cc2)nc2cc(Oc3ccnc(-c4ncc(C(F)(F)F)[nH]4)c3)ccc21 [RAF265] + O=C(CCCCCCC(=O)Nc1ccccc1)NO [Vorinostat] (partner 1 µM)
How it was run: as §1

| Cell Line | relative viability (RAF265 + Decitabine; first compound 0.01 µM) | relative viability (RAF265 + Decitabine; first compound 0.03162 µM) | relative viability (RAF265 + Decitabine; first compound 0.1 µM) | relative viability (RAF265 + Decitabine; first compound 0.3162 µM) | relative viability (RAF265 + Decitabine; first compound 1 µM) | relative viability (Doramapimod + Navitoclax; first compound 0.02 µM) | relative viability (Doramapimod + Navitoclax; first compound 0.06325 µM) | relative viability (Doramapimod + Navitoclax; first compound 0.2 µM) | relative viability (Doramapimod + Navitoclax; first compound 0.6325 µM) | relative viability (Doramapimod + Navitoclax; first compound 2 µM) | relative viability (RAF265 + AZD7762; first compound 0.01 µM) | relative viability (RAF265 + AZD7762; first compound 0.03162 µM) | relative viability (RAF265 + AZD7762; first compound 0.1 µM) | relative viability (RAF265 + AZD7762; first compound 0.3162 µM) | relative viability (RAF265 + AZD7762; first compound 1 µM) | relative viability (RAF265 + Vorinostat; first compound 0.01 µM) | relative viability (RAF265 + Vorinostat; first compound 0.03162 µM) | relative viability (RAF265 + Vorinostat; first compound 0.1 µM) | relative viability (RAF265 + Vorinostat; first compound 0.3162 µM) | relative viability (RAF265 + Vorinostat; first compound 1 µM) |
| --- | --- | --- | --- | --- | --- | --- | --- | --- | --- | --- | --- | --- | --- | --- | --- | --- | --- | --- | --- | --- |
| NCI-H322M | 0.704 | 0.667 | 0.593 | 0.495 | 0.395 | 1.12 | 1.16 | 1.16 | 1.33 | 1.2 | 0.55 | 0.717 | 0.493 | 0.381 | 0.404 | 0.875 | 0.866 | 0.516 | 0.403 | 0.348 |
| NCI-H1792 | 0.462 | 0.506 | 0.472 | 0.324 | 0.204 | 0.601 | 0.809 | 0.672 | 0.617 | 0.577 | 0.638 | 0.568 | 0.475 | 0.11 | 0.0984 | – | – | – | – | – |
| LXF-289 | 0.446 | 0.399 | 0.393 | 0.345 | 0.26 | 0.954 | 1 | 0.939 | 0.903 | 0.942 | 1.12 | 1.26 | 1.24 | 0.849 | 0.871 | 0.768 | 0.752 | 0.754 | 0.606 | 0.571 |
| HCC-827 | 0.341 | 0.325 | 0.294 | – | 0.333 | 1.01 | 0.959 | 0.984 | 1 | 0.829 | 0.213 | 0.357 | 0.215 | – | 0.197 | 0.866 | 0.808 | 0.543 | – | 0.704 |
| NCI-H520 | 0.567 | 0.418 | 0.478 | 0.452 | 0.345 | 1 | 1.11 | 1.08 | 1.18 | 1.02 | – | – | – | – | – | 0.777 | 0.579 | 0.688 | 0.572 | 0.55 |
| NCI-H522 | 0.651 | 0.585 | 0.604 | 0.729 | 0.617 | – | – | – | – | – | 0.801 | 0.872 | 0.887 | 0.985 | 0.897 | 0.841 | 1.02 | 1.05 | 0.872 | 0.857 |
| SK-MES-1 | 0.383 | 0.295 | 0.3 | 0.231 | 0.221 | 1.16 | 1.25 | 1.23 | 1.25 | 0.99 | – | – | – | – | – | 1.12 | 0.772 | 0.519 | 0.398 | 0.343 |
| NCI-H2023 | 0.26 | 0.208 | 0.198 | 0.215 | 0.176 | 1.09 | 1.08 | 0.892 | 1 | 0.948 | – | – | – | – | – | 0.59 | 0.501 | 0.707 | 0.515 | 0.381 |
| NCI-H1299 | – | – | – | – | – | 1.1 | 1.13 | 1.12 | 1.05 | 1.09 | – | – | – | – | – | – | – | – | – | – |
| NCI-H661 | 0.692 | 0.527 | 0.435 | 0.442 | 0.378 | – | – | – | – | – | – | – | – | – | – | 0.834 | 0.698 | 0.639 | 0.554 | 0.568 |
| NCI-H1650 | 0.424 | 0.439 | 0.426 | 0.4 | 0.472 | 1.09 | 1.2 | 1.23 | 1.63 | 1.2 | – | – | – | – | – | 0.615 | 0.587 | 0.595 | 0.655 | 0.566 |
| Calu-6 | – | – | – | – | – | 0.885 | 0.894 | 0.899 | 0.92 | 0.846 | – | – | – | – | – | – | – | – | – | – |
| NCI-H650 | 0.342 | 0.319 | 0.395 | 0.308 | 0.288 | – | – | – | – | – | 0.969 | 0.966 | 0.996 | 0.551 | 0.748 | 0.442 | 0.418 | 0.42 | 0.277 | 0.232 |
| NCI-H1703 | – | – | – | – | – | 0.957 | 0.944 | 1.16 | 1.54 | 0.896 | 0.132 | 0.133 | 0.126 | 0.142 | 0.099 | – | – | – | – | – |
| EBC-1 | – | – | – | – | – | 0.428 | 0.335 | 0.332 | 0.417 | 0.372 | – | – | – | – | – | – | – | – | – | – |
| NCI-H1648 | 0.453 | 0.557 | 0.518 | 0.4 | 0.391 | – | – | – | – | – | 0.698 | 0.514 | 0.804 | 0.758 | 0.567 | 0.464 | 0.539 | 0.352 | 0.317 | 0.263 |
| COR-L23 | 0.553 | 0.399 | 0.436 | 0.377 | 0.313 | 1.1 | 0.989 | 1 | 1.07 | 1.02 | – | – | – | – | – | 0.487 | 0.297 | 0.392 | 0.268 | 0.248 |
| SW 1573 | 0.675 | 0.406 | 0.4 | 0.325 | 0.244 | 1.11 | 0.83 | 1.05 | 0.78 | 0.789 | – | – | – | – | – | 1 | 0.763 | 0.834 | 0.792 | 0.582 |
| SW 900 | 0.51 | 0.429 | 0.505 | 0.412 | 0.407 | – | – | – | – | – | 0.709 | 0.483 | 0.671 | 0.466 | 0.348 | 0.544 | 0.494 | 0.503 | 0.381 | 0.227 |
| SK-LU-1 | 0.847 | 0.597 | 0.508 | 0.569 | 0.414 | 0.544 | 1 | 0.821 | 1.01 | 0.7 | – | – | – | – | – | 0.715 | 0.449 | 0.443 | 0.36 | 0.262 |
| NCI-H2342 | 0.717 | 0.672 | 0.727 | 0.784 | 0.714 | – | – | – | – | – | 0.507 | 0.558 | 0.539 | 0.498 | 0.474 | 0.714 | 0.809 | 0.851 | 0.667 | 0.764 |
| A549 | 0.226 | 0.232 | 0.259 | 0.318 | 0.155 | 1.18 | 1.22 | 1.39 | 1.34 | 1.1 | – | – | – | – | – | – | – | – | – | – |
| LCLC-103H | 0.767 | 0.714 | 0.682 | 0.695 | 0.367 | – | – | – | – | – | 0.815 | 0.911 | 0.767 | 0.727 | 0.598 | 0.844 | 0.892 | 0.683 | 0.565 | 0.422 |
